Each structure is given as a SMILES string. Structures can show the parent of a compound that is named as a salt.

One test deals with T1, IRAK4 (Homo sapiens, UniProt Q9NWZ3).
T1 sequence (Q9NWZ3 1-460): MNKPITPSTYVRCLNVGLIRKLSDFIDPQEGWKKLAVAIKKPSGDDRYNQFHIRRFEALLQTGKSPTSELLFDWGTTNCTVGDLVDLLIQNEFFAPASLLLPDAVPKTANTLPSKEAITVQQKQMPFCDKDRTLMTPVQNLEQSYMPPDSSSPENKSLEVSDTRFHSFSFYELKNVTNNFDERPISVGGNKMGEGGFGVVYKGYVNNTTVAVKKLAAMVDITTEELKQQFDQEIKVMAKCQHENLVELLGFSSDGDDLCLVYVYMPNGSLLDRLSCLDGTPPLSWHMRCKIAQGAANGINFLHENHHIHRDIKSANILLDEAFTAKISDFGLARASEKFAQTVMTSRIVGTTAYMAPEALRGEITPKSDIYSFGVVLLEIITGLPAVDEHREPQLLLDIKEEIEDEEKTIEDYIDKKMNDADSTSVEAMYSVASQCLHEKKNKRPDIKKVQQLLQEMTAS
Briefly: biochemical.
Conditions: not given
A word on the IC50: it is the concentration that inhibits the measured activity by half. High values mean lower potency, low ones higher potency. For the molecule `CC12CC(c3cn4cc(C(=O)Nc5ccn(C(F)F)n5)c(OC5CCC5)cc4n3)(CO1)C2` [Example 523, 7-Cyclobutoxy-N-(1-(difluoromethyl)-1H-pyrazol-3-yl)-2-(1-methyl-2-oxabicyclo[2.1.1]hexan-4-yl)imidazo[1,2-a]pyridine-6-carboxamide], the IC50 stood at 0.0023 µM. This lies in the single-digit nanomolar range.
Turning to `Cc1cnc2c(NC(=O)c3cn4cc(C56CCC(C)(C5)OC6)nc4cc3OC3CCC3)cnn2c1` (stereo not shown) [Example 426, 7-Cyclobutoxy-2-(1-methyl-2-oxabicyclo[2.2.1]heptan-4-yl)-N-(6-methylpyrazolo[1,5-a]pyrimidin-3-yl)imidazo[1,2-a]pyridine-6-carboxamide], the IC50 came to 0.0003 µM. This IC50 is about 7.7-fold lower than that of the molecule before.
As for `Cc1cnc2c(NC(=O)c3cn4cc(C56COC(C5)C6)nc4nc3OC(C)C)cnn2c1` [Example 432], the IC50 is 0.0006 µM.
For the molecule `COc1ncccc1NC(=O)c1cn2cc(C34CC(C#N)(C3)C4)nc2cc1OC(C)C` [Example 403, 2-(3-Cyanobicyclo[1.1.1]pentan-1-yl)-7-isopropoxy-N-(2-methoxypyridin-3-yl)imidazo[1,2-a]pyridine-6-carboxamide], the IC50 was determined as 0.0008 µM.
`Cc1cc(-n2ccc(NC(=O)c3cn4cc(C56COC(C)(C5)C6)nc4cc3OC3CCC3)n2)ccn1` [Example 522, 7-Cyclobutoxy-2-(1-methyl-2-oxabicyclo[2.1.1]hexan-4-yl)-N-(1-(2-methylpyridin-4-yl)-1H-pyrazol-3-yl)imidazo[1,2-a]pyridine-6-carboxamide]: half-maximal inhibition (IC50) was put at 0.0005 µM.
On to `CC12CC(c3cn4cc(C(=O)Nc5cccn(C(F)F)c5=O)c(OC5CCC5(C)C)cc4n3)(CO1)C2` (stereo not shown) [Example 439, N-(1-(difluoromethyl)-2-oxo-1,2-dihydropyridin-3-yl)-7-(2,2-dimethylcyclobutoxy)-2-(1-methyl-2-oxabicyclo[2.1.1]hexan-4-yl)imidazo[1,2-a]pyridine-6-carboxamide], for which the midpoint of inhibition, the IC50, lay at 0.0028 µM.
Turning to `CC(C)Oc1cc2nc(C34CCC(C)(C3)OC4)cn2cc1C(=O)Nc1ccc(F)cn1` (stereo not shown) [Example 517, N-(5-fluoropyridin-2-yl)-7-isopropoxy-2-(1-methyl-2-oxabicyclo[2.2.1]heptan-4-yl)imidazo[1,2-a]pyridine-6-carboxamide], the IC50 was 0.0043 µM.
Regarding `CCOc1nc(C(=O)Nc2cccnc2OC)cn2cc(C3CCOC3)nc12` (stereo not shown) [Example 273, 8-Ethoxy-N-(2-methoxypyridin-3-yl)-2-(tetrahydrofuran-3-yl)imidazo[1,2-a]pyrazine-6-carboxamide], the IC50 turned out to be 0.0047 µM.
In turn, `CC(C)Oc1nc2nc(C34COC(C)(C3)C4)cn2cc1C(=O)Nc1cnn2cc(C3CC3)cnc12` [Example 375, N-(6-cyclopropylpyrazolo[1,5-a]pyrimidin-3-yl)-7-isopropoxy-2-(1-methyl-2-oxabicyclo[2.1.1]hexan-4-yl)imidazo[1,2-a]pyrimidine-6-carboxamide] had an IC50 of 0.0067 µM.
`CC12CC(c3cn4cc(C(=O)Nc5cnn6cccnc56)c(OC5CC5)cc4n3)(CO1)C2` [Example 551]: the IC50 amounted to 0.0019 µM.
Molecule `CCn1cccc(NC(=O)c2cn3cc(C4CCOCC4)nc3cc2OC)c1=O` [Example 185] came in with an IC50 of 0.0434 µM.
The molecule `CC(C)COc1cc2nc(C3CC3)cn2cc1C(=O)Nc1cccc(C(F)F)n1` [Example 466, 2-Cyclopropyl-N-(6-(difluoromethyl)pyridin-2-yl)-7-isobutoxyimidazo[1,2-a]pyridine-6-carboxamide] had an IC50 of 0.0057 µM.
Molecule `CC(C)Oc1cc(C(=O)Nc2cccc(C(F)F)n2)cn2cc(C3CCCOC3)nc12` (stereo not shown) [Example 394, N-(6-(difluoromethyl)pyridin-2-yl)-8-isopropoxy-2-(tetrahydro-2H-pyran-3-yl)imidazo[1,2-a]pyridine-6-carboxamide] displayed a concentration for half-maximal inhibition (IC50) of 0.0057 µM.
On the same count and under the same terms, then `CC(C)Oc1cc2nc([C@]34CC[C@](C)(C3)OC4)cn2cc1C(=O)Nc1cccn(C)c1=O` (single isomer, unassigned) [Example 621], with 0.0014 µM; and `CC(C)Oc1cc2nc([C@]34CC[C@H](C3)OC4)cn2cc1C(=O)Nc1cnn2cccnc12` (single isomer, unassigned) [Example 583], with 0.0008 µM; and `C[C@@]12CC[C@@](c3cn4cc(C(=O)Nc5cccc(C(F)F)n5)cc(OC(F)F)c4n3)(CO1)C2` (single isomer, unassigned) [Example 584], with 0.0154 µM.
`Cn1ccc(NC(=O)c2cn3cc(C45CCC(C)(C4)OC5)nc3cc2OC2CCC2)n1` (stereo not shown) [Example 561, 7-Cyclobutoxy-N-(1-methyl-1H-pyrazol-3-yl)-2-(1-methyl-2-oxabicyclo[2.2.1]heptan-4-yl)imidazo[1,2-a]pyridine-6-carboxamide] showed an IC50 of 0.0014 µM.
In the case of `CC(C)Oc1cc2nc(C34COC(C)(C3)C4)cn2cc1C(=O)Nc1ccc(F)cn1` [Example 244], 0.0059 µM corresponded to half-maximal inhibition (IC50).
In turn, `COc1cccc(NC(=O)c2cn3cc(C4CC5CCC(C4)O5)nc3cc2OC(C)C)n1` (stereo not shown) [Example 94, 2-(8-oxabicyclo[3.2.1]octan-3-yl)-7-isopropoxy-N-(6-methoxypyridin-2-yl)imidazo[1,2-a]pyridine-6-carboxamide] registered an IC50 of 0.0178 µM.
For the molecule `CC12CCC(c3cn4cc(C(=O)Nc5cnn6cccnc56)c(OC5CC5)cc4n3)(CO1)C2` (stereo not shown) [Example 554], the midpoint of inhibition, the IC50, lay at 0.0008 µM.
`COc1ncccc1NC(=O)c1cn2cc(C34CCOC(C)(C3)C4)nc2c(OC)n1` [Example 235] came in with an IC50 of 0.0035 µM.
Molecule `CC(C)Oc1cc2nc([C@@]34CC[C@@H](C3)OC4)cn2cc1C(=O)Nc1cccc(C(F)F)n1` (single isomer, unassigned) [Example 590] registered an IC50 of 0.0001 µM.
The molecule `CCOc1nc(C(=O)Nc2cccc(Cl)c2F)cn2cc(C34COC(C)(C3)C4)nc12` [Example 488, N-(3-chloro-2-fluorophenyl)-8-ethoxy-2-(1-methyl-2-oxabicyclo[2.1.1]hexan-4-yl)imidazo[1,2-a]pyrazine-6-carboxamide] came in with an IC50 of 0.0081 µM.
Molecule `CC12CC(c3cn4cc(C(=O)Nc5cccc6ccnn56)nc(OC5CCC5)c4n3)(CO1)C2` [Example 348, 8-Cyclobutoxy-2-(1-methyl-2-oxabicyclo[2.1.1]hexan-4-yl)-N-(pyrazolo[1,5-a]pyridin-7-yl)imidazo[1,2-a]pyrazine-6-carboxamide] returned a half-inhibitory concentration (IC50) of 0.0082 µM.

Staying with this test, now noted: IRAK4 Biochemical Assay (1 mM ATP, 2 h) IC50 (μM), 1 mM ATP, 2 h, 100 pM IRAK4.
`COc1cccc(NC(=O)c2cn3cc(C45COC(CF)(C4)C5)nc3cc2OC)n1` [Example 7] yielded an IC50 of 0.0166 µM.
Turning to `C[C@@]12CC[C@@](c3cn4cc(C(=O)Nc5ccccn5)nc(OC5CCC5)c4n3)(CO1)C2` (single isomer, unassigned) [Example 622], the IC50 came to 0.004 µM.
Turning to `COc1ncccc1NC(=O)c1cn2cc(C34COC(C)(C3)C4)nc2cc1OC(F)F` [Example 332, 7-(Difluoromethoxy)-N-(2-methoxypyridin-3-yl)-2-(1-methyl-2-oxabicyclo[2.1.1]hexan-4-yl)imidazo[1,2-a]pyridine-6-carboxamide trifluoroacetate], the IC50 came out at 0.0052 µM.
In the case of `CC(C)Oc1cc2nc(C34COC(C)(C3)C4)cn2cc1C(=O)Nc1cnc2cccnn12` [Example 321, N-(imidazo[1,2-b]pyridazin-3-yl)-7-isopropoxy-2-(1-methyl-2-oxabicyclo[2.1.1]hexan-4-yl)imidazo[1,2-a]pyridine-6-carboxamide 2,2,2-trifluoroacetate], the IC50 is 0.0003 µM.
`CC(C)Oc1nc2nc(C34COC(C)(C3)C4)cn2cc1C(=O)Nc1cnn2cc(F)cnc12` [Example 398, N-(6-fluoropyrazolo[1,5-a]pyrimidin-3-yl)-7-isopropoxy-2-(1-methyl-2-oxabicyclo[2.1.1]hexan-4-yl)imidazo[1,2-a]pyrimidine-6-carboxamide] had an IC50 of 0.0002 µM.
With `CC12CC(c3cn4cc(C(=O)Nc5cccn(C6CC6)c5=O)c(OC5CCC5)nc4n3)(CO1)C2` [Example 651, 7-Cyclobutoxy-N-(1-cyclopropyl-2-oxo-1,2-dihydropyridin-3-yl)-2-(1-methyl-2-oxabicyclo[2.1.1]hexan-4-yl)imidazo[1,2-a]pyrimidine-6-carboxamide], the IC50 came to 0.0005 µM.
Consider `CC(C)Oc1nc2nc(C34COC(C)(C3)C4)cn2cc1C(=O)Nc1ccc2c(n1)CCC2` [Example 366, N-(6,7-dihydro-5H-cyclopenta[b]pyridin-2-yl)-7-isopropoxy-2-(1-methyl-2-oxabicyclo[2.1.1]hexan-4-yl)imidazo[1,2-a]pyrimidine-6-carboxamide trifluoroacetate], for which 0.0065 µM corresponded to half-maximal inhibition (IC50).
As for `CC(C)Oc1cc2nc(C34COC(C)(C3)C4)c(F)n2cc1C(=O)Nc1ccn(C)n1` [Example 327, 3-Fluoro-7-isopropoxy-N-(1-methyl-1H-pyrazol-3-yl)-2-(1-methyl-2-oxabicyclo[2.1.1]hexan-4-yl)imidazo[1,2-a]pyridine-6-carboxamide trifluoroacetate], inhibition was half-maximal at 0.0372 µM (IC50).
On the same count and under the same terms, then `CC(C)Oc1cc2nc(C34CCC(C)(CC3)OC4)cn2cc1C(=O)Nc1cccn(C)c1=O` [Example 574, 7-Isopropoxy-N-(1-methyl-2-oxo-1,2-dihydropyridin-3-yl)-2-(1-methyl-2-oxabicyclo[2.2.2]octan-4-yl)imidazo[1,2-a]pyridine-6-carboxamide], with 0.0002 µM; and `CCOc1cc2nc(C3CCOCC3)cn2cc1C(=O)Nc1cccc(C(F)CF)n1` (stereo not shown) [Example 392, N-(6-(1,2-difluoroethyl)pyridin-2-yl)-7-ethoxy-2-(tetrahydro-2H-pyran-4-yl)imidazo[1,2-a]pyridine-6-carboxamide hydrochloride], with 0.0018 µM.
